# PubChem BioAssay (NCI)
#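 Briefly, cells in 96-well plates were exposed to five compound concentrations for 48 h, and endpoints were estimated by linear interpolation. Abbreviation: GI50, concentration required for 50% inhibition of growth. The concentration for full growth arrest is given as TGI.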
# Tests used:
# Assay in all cases: NCI tumour cell line growth inhibition, 48 h
# [1] = test system: NCI-H226 lung
# [2] = test system: A549 NSCLC
# [3] = test system: OVCAR-5 ovarian
# [4] = test system: MCF7 breast
# [5] = test system: TK-10 renal
# [6] = test system: RPMI-8226 leukemia
# [7] = test system: HS 578T breast
# [8] = test system: IGROV1 ovarian
# [9] = test system: K-562 leukemia
# [10] = test system: BT-549 breast
compound,measurement,setting,value
N#CCSc1c(-c2ccccc2)c(=O)n(-c2ccccc2)c(=S)n1-c1ccccc1,TGI,[1],> 100 µM
same,TGI,[2],> 100 µM
same,TGI,[3],> 100 µM
same,TGI,[4],> 100 µM
same,TGI,[5],> 100 µM
same,TGI,[6],> 100 µM
same,TGI,[7],> 100 µM
same,TGI,[8],> 100 µM
same,TGI,[9],> 100 µM
NNC(=O)CCC(NS(=O)(=O)c1ccc(Cl)cc1)C(=O)NN (centres undefined),TGI,[1],> 100 µM
same,TGI,[2],> 100 µM
same,TGI,[3],> 100 µM
same,TGI,[4],> 100 µM
same,TGI,[5],> 100 µM
same,TGI,[7],> 100 µM
same,TGI,[8],> 100 µM
same,TGI,[10],> 100 µM
same,TGI,[9],> 100 µM
O=C(NN1C(=O)CSC1c1ccco1)c1ccncc1 (centres undefined),TGI,[1],> 100 µM
same,TGI,[2],> 100 µM
same,TGI,[3],> 100 µM
same,TGI,[4],> 100 µM
same,TGI,[5],> 100 µM
same,TGI,[6],> 100 µM
same,TGI,[8],> 100 µM
same,TGI,[10],> 100 µM
same,TGI,[9],> 100 µM
CCOC(=O)c1cn(CC)c2cc3c(cc2c1=O)CCS3(=O)=O,TGI,[1],> 100 µM
same,TGI,[2],> 100 µM
same,TGI,[3],> 100 µM
same,TGI,[4],> 100 µM
same,TGI,[5],> 100 µM
same,TGI,[7],> 100 µM
same,TGI,[8],> 100 µM
same,TGI,[10],> 100 µM
same,TGI,[9],> 100 µM
CC(C)(C)OC(=O)N1Cc2cc(O)ccc2C[C@H]1C(=O)O,TGI,[1],> 100 µM
same,TGI,[2],> 100 µM
same,TGI,[3],> 100 µM
same,TGI,[4],> 100 µM
same,TGI,[5],> 100 µM
same,TGI,[7],> 100 µM
same,TGI,[8],> 100 µM
same,TGI,[9],> 100 µM
COc1cc(/C=c2/c3ccccc3n3c2cc(-c2ccccc2)[n+]3C)cc(OC)c1OC,TGI,[1],32.8 µM
same,TGI,[2],> 100 µM
same,TGI,[3],21.4 µM
same,TGI,[4],20.6 µM
same,TGI,[5],17.4 µM
same,TGI,[6],> 32.1 µM
same,TGI,[8],23 µM
same,TGI,[10],11.8 µM
same,TGI,[9],15.4 µM
O=C(O)CN(CC(=O)O)Cc1ccn(-c2cccc(-n3ccc(CN(CC(=O)O)CC(=O)O)n3)n2)n1,TGI,[1],> 100 µM
same,TGI,[2],> 100 µM
same,TGI,[3],> 100 µM
same,TGI,[4],> 100 µM
same,TGI,[5],> 100 µM
same,TGI,[6],> 100 µM
same,TGI,[7],> 100 µM
same,TGI,[8],> 100 µM
same,TGI,[10],> 100 µM
Cc1cc(C)c2c(=N)c3ccccc3n(CCCCCCn3c4ccccc4c(=N)c4c(C)cc(C)nc43)c2n1,TGI,[1],2.85 µM
same,TGI,[2],3.03 µM
same,TGI,[3],3.49 µM
same,TGI,[5],3.19 µM
same,TGI,[8],2.64 µM
same,TGI,[10],2.91 µM
same,TGI,[9],> 100 µM
Clc1cc(OCC23CC4CC(CC(C4)C2)C3)nc(OCC23CC4CC(CC(C4)C2)C3)n1,TGI,[2],> 100 µM
same,TGI,[3],> 100 µM
same,TGI,[4],> 100 µM
same,TGI,[5],> 100 µM
same,TGI,[6],> 100 µM
same,TGI,[7],> 100 µM
same,TGI,[8],> 100 µM
same,TGI,[10],> 100 µM
same,TGI,[9],> 100 µM
Cc1cc2c(cc1-c1cc3c(cc1C)C(C(C)C)=C(O)C(=O)/C3=C\Nc1c(C)n(C)n(-c3ccccc3)c1=O)/C(=C/Nc1c(C)n(C)n(-c3ccccc3)c1=O)C(=O)C(O)=C2C(C)C,TGI,[1],> 100 µM
same,TGI,[2],> 100 µM
same,TGI,[3],> 100 µM
same,TGI,[4],> 100 µM
same,TGI,[6],> 100 µM
same,TGI,[7],> 100 µM
same,TGI,[8],> 100 µM
same,TGI,[10],> 100 µM
same,TGI,[9],> 100 µM
Cc1c(O)c(=O)ccn1CCc1c[nH]c2ccccc12,TGI,[2],> 100 µM
same,TGI,[3],> 100 µM
same,TGI,[4],33.2 µM
same,TGI,[5],> 100 µM
same,TGI,[6],29.8 µM
same,TGI,[7],54 µM
same,TGI,[10],> 100 µM
same,TGI,[9],66.7 µM
CCNc1cc2c3c(c1)CCCN3CCC2,TGI,[1],41.9 µM
same,TGI,[2],35.9 µM
same,TGI,[3],45.1 µM
same,TGI,[4],62.9 µM
same,TGI,[5],> 100 µM
same,TGI,[6],57.1 µM
same,TGI,[7],78.5 µM
same,TGI,[8],31.5 µM
same,TGI,[9],28.3 µM
O=C1c2ccccc2-c2nnc(-c3ccc(Cl)cc3)cc21,TGI,[1],> 10 µM
same,TGI,[2],> 10 µM
same,TGI,[3],> 10 µM
same,TGI,[4],> 10 µM
same,TGI,[6],> 10 µM
same,TGI,[7],> 10 µM
same,TGI,[8],> 10 µM
same,TGI,[10],> 10 µM
same,TGI,[9],> 10 µM
CC1C2CC(CC2N)C1(C)C (centres undefined),TGI,[1],> 100 µM
same,TGI,[2],> 100 µM
same,TGI,[3],> 100 µM
same,TGI,[4],> 100 µM
same,TGI,[5],> 100 µM
same,TGI,[7],> 100 µM
same,TGI,[8],> 100 µM
same,TGI,[10],> 100 µM
same,TGI,[9],> 100 µM
O=C(Cc1ccccc1)N=Nc1c(O)[nH]c2ccccc12,TGI,[1],> 100 µM
same,TGI,[2],> 100 µM
same,TGI,[3],> 100 µM
same,TGI,[4],> 100 µM
same,TGI,[5],> 100 µM
same,TGI,[7],> 100 µM
same,TGI,[8],> 100 µM
same,TGI,[10],> 100 µM
same,TGI,[9],> 100 µM
CCOC(=O)C1=CC(C)(C(=O)OCC)Nc2c(nc(SC)n(C)c2=O)N1 (centres undefined),TGI,[1],> 10 µM
same,TGI,[2],> 10 µM
same,TGI,[3],> 10 µM
same,TGI,[4],> 10 µM
same,TGI,[5],> 10 µM
same,TGI,[6],> 10 µM
same,TGI,[8],> 10 µM
same,TGI,[10],> 10 µM
same,TGI,[9],> 10 µM
Cn1cc(-c2nc(-c3c[nH]c4ccncc34)cs2)c2cc(F)ccc21,GI50,[1],1920 nM
same,TGI,[1],3.9 µM
same,GI50,[2],1850 nM
same,TGI,[2],3.57 µM
same,GI50,[3],1680 nM
same,TGI,[3],3.11 µM
same,GI50,[4],1230 nM
same,TGI,[4],2.88 µM
same,GI50,[5],2110 nM
same,TGI,[5],3.69 µM
same,GI50,[7],2210 nM
same,TGI,[7],4.74 µM
same,GI50,[8],1.86 µM
same,TGI,[8],3.41 µM
same,GI50,[10],1800 nM
same,TGI,[10],3.4 µM
COc1cc(/C=C2\N=C(C)N(n3c(-c4ccccc4)nc4ccccc4c3=O)C2=O)cc(OC)c1OC,TGI,[1],> 100 µM
same,TGI,[2],> 100 µM
same,TGI,[4],> 100 µM
same,TGI,[5],> 100 µM
same,TGI,[6],> 100 µM
same,TGI,[7],> 100 µM
same,TGI,[8],> 100 µM
same,TGI,[10],> 100 µM
same,TGI,[9],> 100 µM
C/C(=N\NC(=O)c1cccnc1)c1cccc(/C(C)=N/NC(=O)c2cccnc2)n1.CC(=O)[O-].CC(=O)[O-].[Zn+2],TGI,[1],27.2 µM
same,TGI,[2],> 57.4 µM
same,TGI,[3],> 100 µM
same,TGI,[5],> 100 µM
same,TGI,[6],> 100 µM
same,GI50,[8],10.1 µM
same,TGI,[8],> 43.4 µM
COC(=O)[C@@]12OC[C@]34C([C@@H](O)C1O)[C@@]1(C)CC(=O)C(O)=C(C)C1C[C@H]3OC(=O)[C@H](OC(=O)/C=C(/c1ccccc1)C(F)(F)F)[C@H]42 (some centres undefined),TGI,[1],11.7 µM
same,TGI,[2],20.2 µM
same,TGI,[3],> 25 µM
same,TGI,[5],> 25 µM
same,TGI,[8],11.5 µM
same,TGI,[9],> 25 µM
Clc1ccc2nc(CC3CCCC3)[nH]c2c1,TGI,[1],38.4 µM
same,TGI,[2],60.8 µM
same,TGI,[3],67.5 µM
same,TGI,[4],22 µM
same,TGI,[5],70.2 µM
same,TGI,[6],50.3 µM
same,TGI,[8],19 µM
same,TGI,[9],22.1 µM
COc1ccc(S(=O)(=O)Nc2ccc(-c3csc(N4C(=O)/C(=C/c5ccccc5)N=C4c4ccccc4)n3)cc2)cc1Cl,TGI,[1],> 100 µM
same,TGI,[2],> 100 µM
same,TGI,[3],> 100 µM
same,TGI,[4],> 100 µM
same,TGI,[5],> 100 µM
same,TGI,[7],> 100 µM
same,TGI,[8],> 100 µM
same,TGI,[9],> 100 µM
